The target in test [1] is T1, TSH receptor (TSHR) (Homo sapiens, UniProt P16473). Kind of test: cAMP production in HEK293 cells stably expressing TSHR (agonist dose-response). Type of test: cell-based.
For test [2], the target named is T1, TSH receptor (TSHR). Briefly: cAMP production in HEK293 cells stably expressing TSHR (agonist dose-response); inactive in HEK-LHR and HEK-FSHR cells. It is filed as cell-based. For orientation: Changes in cAMP serve as a functional read-out for many G protein-coupled receptors.

T1 sequence (P16473 21-764): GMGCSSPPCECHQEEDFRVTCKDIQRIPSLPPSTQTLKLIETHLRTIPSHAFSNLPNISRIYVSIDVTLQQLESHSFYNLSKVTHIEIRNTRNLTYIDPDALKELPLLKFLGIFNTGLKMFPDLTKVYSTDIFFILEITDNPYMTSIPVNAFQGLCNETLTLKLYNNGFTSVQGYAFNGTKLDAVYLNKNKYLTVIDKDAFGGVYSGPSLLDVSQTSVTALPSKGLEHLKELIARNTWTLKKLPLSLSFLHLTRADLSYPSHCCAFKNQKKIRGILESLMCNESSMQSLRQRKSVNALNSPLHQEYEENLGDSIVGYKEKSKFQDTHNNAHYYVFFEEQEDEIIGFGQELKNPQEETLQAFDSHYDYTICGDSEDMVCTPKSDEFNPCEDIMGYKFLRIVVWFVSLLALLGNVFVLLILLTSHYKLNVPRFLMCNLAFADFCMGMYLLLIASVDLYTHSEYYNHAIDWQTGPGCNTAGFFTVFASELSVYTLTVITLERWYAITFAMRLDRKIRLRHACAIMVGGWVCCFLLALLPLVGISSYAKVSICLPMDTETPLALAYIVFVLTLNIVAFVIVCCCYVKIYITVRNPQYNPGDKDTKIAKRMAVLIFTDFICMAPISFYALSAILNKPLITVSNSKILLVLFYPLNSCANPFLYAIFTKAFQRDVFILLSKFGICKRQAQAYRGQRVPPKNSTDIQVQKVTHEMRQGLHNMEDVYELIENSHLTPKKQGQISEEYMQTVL

The term EC50 denotes the concentration giving half of the maximal effect. On TSH receptor (TSHR) [1], `COc1ccc(C2Nc3cccc(O)c3C(=O)N2Cc2ccccc2)cc1COc1ccc(NC(C)=O)cc1` (racemic) [C2] displayed a half-maximal effective concentration (EC50) of 46 nM.

As to `COc1ccc([C@H]2Nc3cccc(O)c3C(=O)N2Cc2ccccc2)cc1COc1ccc(NC(C)=O)cc1` [E2], on TSH receptor (TSHR) [2], the EC50 was 18 nM.

Take `COc1ccc([C@@H]2Nc3cccc(O)c3C(=O)N2Cc2ccccc2)cc1COc1ccc(NC(C)=O)cc1` [E1]: at TSH receptor (TSHR) [2], the EC50 turned out to be 217 nM.
